One data set relates to cultured FECD CECs. Kind of data set: RSL3/erastin-induced ferroptosis assay, cell viability by MTS, cultured FECD CECs. The format is cell-based, human. The method, then:
(§1) FIGS. 4A-4C. FECD CECs are more susceptible to ferroptosis than B4G12 control CECs. (A) Basal lipid peroxidation, as measured by C11 BODIPY, is 57% higher in cultured FECD CECs (N=3) than B4G12 cells (N=3). […] Cultured FECD CECs (N=6) also have 4.7-fold more TFR1 mRNA than B4G12 CECs (N=9), normalized to 18S. (C) Cultured FECD CECs (N=3) and B4G12 cells (N=3) were treated with 1 μM RSL3 to induce cell death via Fe-dependent ferroptosis. The cells were also treated with 100 μM of a Fe chelator, deferoxamine (DFO). Cell viability was measured using MTS assays over 8 hours.
FIGS. 5A-5B. FECD-associated ferroptosis is prevented by ubiquinol nanoparticles (NPs) and SOD2 supplementation. […] After incubating another 24 hours (68 hours total), cell viability in each culture was quantified using MTS assays.
(§2) Basal levels of lipid peroxidation and cytosolic Fe are higher in human FECD CECs than control CECs. […] One experiment assessed lipid peroxidation directly. Cultured FECD CECs and control CECs (B4G12 cells) were labeled with BODIPY and intensity was measured using flow cytometry. […] To determine whether Fe trafficking is affected in the context of FECD, TFR1 was quantified, which has been identified as an indicator of ferroptosis (Stockwell et al., 2017; Feng et al., 2020). […]

In a further data set the test system is B4G12 CECs. The experiment in a line: RSL3/erastin-induced ferroptosis / cell death assay, cell viability by MTS, B4G12 CECs. Type of data set: cell-based, human. The method, then: as §1
FIGS. 8A-8B. Nanoparticle targeting and efficacy. […] FITC-anti-αvβ3 labeled cells were detected and counted by flow cytometry and compared to a FITC-IgG control as well as unlabeled cells. […] After incubating another 24 hours (68 hours total), cell viability in each culture was quantified using MTS assays. […]
as §2

The conditions of data set [1]: cited from earlier work.
The conditions of data set [2]: Optisol-GS at 4° C. over 4 days. The method, then: Samples of Optisol-GS are collected daily. Concentrations (μg drug/total protein) of ubiquinol and its oxidized form ubiquinone are measured using HPLC. Coenzyme Q9 (CoQ9) is the internal standard.
Data set [3] relates to ex vivo human donor CEC tissues. Kind of data set: Mitochondrial respiration stress testing (extracellular flux analysis of O2 consumption, Seahorse) of donor CEC tissues stored in Optisol-GS. The format is cell-based. The method, then: FIGS. 3A-3B. Ubiquinol increases mitochondrial function under oxidative stress. (A) Ex vivo human donor CECs stored in corneal storage media (Optisol-GS, Bausch+Lomb) are exposed to 3-fold greater O2 levels than in vivo CECs. Extracellular flux analysis of O2 consumption was performed in transplant-suitable ex vivo human donor CEC tissues stored for 12 days (average) in media supplemented with 10 μM free ubiquinol (dissolved in ethanol at 37° C.) for the last 5 days of storage (N=13) compared to same-donor controls (N=13). […] (B) The presence of αvβ3 on B4G12 CECs (N=3) was confirmed, indicating cRGD NPs will be a suitable delivery system for getting ubiquinol into CECs. FITC-anti-αvβ3 labeled cells were detected and counted by flow cytometry and compared to a FITC-IgG control as well as unlabeled cells. Dashed lines=injections of oligomycin (0), carbonyl cyanide-p-trifluoromethoxy-phenyl-hydrazone (F), antimycin A/rotenone (R/A). Error bars=SEM. ****P<0.0001. SRC, spare respiratory capacity.
Supplementing Optisol-GS with free ubiquinol increases mitochondrial function in donor CECs. Mitochondrial respiration stress testing (extracellular flux analysis of O2 consumption, Seahorse XFe24, Agilent) was performed in transplant-suitable ex vivo human donor CEC tissues stored for 12 days (average) in media supplemented with 10 μm free ubiquinol (dissolved in ethanol at 37 °C) for the last 5 days of storage compared to same-donor ethanol-only controls (N=13 each) (Greiner et al., 2015). […] Although free ubiquinol improved CEC mitochondrial function, ethanol and heat were required to bring it into solution and it was impractical to handle in standard industry conditions. Therefore, ubiquinol can be used to rescue mitochondrial function from storage-related oxidative stress but needs increased delivery. Given the positive impact of ubiquinol treatment on CECs stored at the end of conventional storage (12-14 days), increasing ubiquinol delivery may permit testing for benefit at extended PT (21 days, a 50% increase in PT).

The test system of a further data set is Col8a2^L450W mice. The note with it: 7 mg/ml in water vs water alone; cited from earlier work.
Setting [4] is: 10 μM free ubiquinol for last 5 days of 12 days (average) storage, vs same-donor controls, N=13.

“Also recorded” adds a separate entry of the source.

As for `COC(=O)c1ccc([C@@H]2c3[nH]c4ccccc4c3C[C@@H](C(=O)OC)N2C(=O)CCl)cc1` [RSL3], the “sensitivity of cells to induced ferroptosis” value in the data set on cultured FECD CECs (cultured FECD CECs) and in the data set with B4G12 CECs was “sensitive” each time.

On to `COc1c(O)c(C)c(C/C=C(\C)CC/C=C(\C)CC/C=C(\C)CC/C=C(\C)CC/C=C(\C)CC/C=C(\C)CC/C=C(\C)CC/C=C(\C)CC/C=C(\C)CCC=C(C)C)c(O)c1OC` [free ubiquinol, ubiquinol], for which the “solubility in water / aqueous media” value in data set [1] is on record as “practically insoluble in water; also recorded: poorly soluble in aqueous media”. Moreover, the “prevention of ferroptosis (cell viability, MTS)” value with cultured FECD CECs (antioxidant at 20 h, 1 μM RSL3 after 24 h, read after another 24 h) is reported as “little efficacy”. The molecule also came in with a ubiquinol remaining in data set [2] of 69.3%. Also, in data set [3] (setting [4]), the “increase in maximal respiration” value was 93% and the “increase in spare respiratory capacity” value stood at 174%. For the same molecule, the “mitochondrial respiration / mitochondrial function” value in data set [3] (free ubiquinol in corneal storage media vs controls) is “enhance mitochondrial function; also recorded: increased mitochondrial respiration compared to controls; also recorded: significantly increased mitochondrial respiration and spare respiratory capacity versus controls”.

Regarding `CC(=O)N[C@@H](CS)C(=O)O` [NAC, N-Acetyl-L-cysteine], in the data set on Col8a2^L450W mice, the “CEC death associated with ER stress and oxidative stress” value was “prevented CEC death”; the “clinical markers of CEC health” value is recorded as “increase clinical markers of CEC health”.

The values are drawn from patent US20240238383A1, “ANTI-OXIDANT CONTAINING PARTICLES AND METHODS OF USE” (University of lowa Research Foundation, priority 2021, published 2024).
